Experimental data as given in PubChem BioAssay AID248 (DTP/NCI, 2004).
Values joined by “and” are separate entries in the source; they are usually repeats but may differ in a detail not shown here. Equal entries are not always repeated. Inconclusive results and toxic doses are left out. Rule as the data show it: active = T/C of 150% or more; inactive = T/C below 125%.

Test system: L1210 leukemia ip in BDF1 mice, survival T/C
Experiment: NCI In Vivo Anticancer Drug Screen. Data for tumor model L1210 Leukemia (intraperitoneal) in B6D2F1 (BDF1) mice
Conditions: endpoint: mean survival time, higher = longer survival
How it was run: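 Tumor was transplanted into mice, which were then dosed with test compound or vehicle alone. Survival was recorded for each group, and the treated figure was expressed relative to the control figure.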

[1] = dose: 25.0 mg/kg/injection, schedule: Q01DX009 (ip), vehicle: Klucel (hydroxypropylcellulose) (HPC)
[2] = dose: 50.0 mg/kg/injection, schedule: Q01DX009 (ip), vehicle: Klucel (hydroxypropylcellulose) (HPC)
[3] = dose: 100.0 mg/kg/injection, schedule: Q01DX009 (ip), vehicle: Klucel (hydroxypropylcellulose) (HPC)
[4] = dose: 200.0 mg/kg/injection, schedule: Q01DX009 (ip), vehicle: Klucel (hydroxypropylcellulose) (HPC)
[5] = dose: 100.0 mg/kg/injection, schedule: Q01DX009 (ip), vehicle: saline with Tween-80
[6] = dose: 200.0 mg/kg/injection, schedule: Q01DX009 (ip), vehicle: saline with Tween-80
[7] = dose: 100.0 mg/kg/injection, schedule: Q04DX003 (ip), vehicle: Klucel (hydroxypropylcellulose) (HPC)
[8] = dose: 200.0 mg/kg/injection, schedule: Q04DX003 (ip), vehicle: Klucel (hydroxypropylcellulose) (HPC)
[9] = dose: 400.0 mg/kg/injection, schedule: Q04DX003 (ip), vehicle: Klucel (hydroxypropylcellulose) (HPC)
[10] = dose: 50.0 mg/kg/injection, schedule: Q01DX009 (ip), vehicle: saline with Tween-80
[11] = dose: 400.0 mg/kg/injection, schedule: Q01DX009 (ip), vehicle: Klucel (hydroxypropylcellulose) (HPC)
[12] = dose: 100.0 mg/kg/injection, schedule: Q04DX002 (ip), vehicle: saline with Tween-80
[13] = dose: 200.0 mg/kg/injection, schedule: Q04DX002 (ip), vehicle: saline with Tween-80
[14] = dose: 400.0 mg/kg/injection, schedule: Q04DX002 (ip), vehicle: saline with Tween-80
[15] = dose: 100.0 mg/kg/injection, schedule: Q01DX001 (ip), vehicle: saline
[16] = dose: 100.0 mg/kg/injection, schedule: Q04DX003 (ip), vehicle: saline
[17] = dose: 200.0 mg/kg/injection, schedule: Q04DX003 (ip), vehicle: saline
[18] = dose: 100.0 mg/kg/injection, schedule: Q01DX009 (ip), vehicle: saline
[19] = dose: 200.0 mg/kg/injection, schedule: Q01DX009 (ip), vehicle: saline
[20] = dose: 400.0 mg/kg/injection, schedule: Q01DX009 (ip), vehicle: saline

Measured: T/C

COc1ccccc1N1CCN(CCCC(O)c2ccc(F)cc2)CC1 (stereo unspecified)
inactive: dose: 10.0 mg/kg/injection, schedule: Q04DX003 (ip), vehicle: Klucel (hydroxypropylcellulose) (HPC) 91 % of control | dose: 12.5 mg/kg/injection, schedule: Q01DX009 (ip), vehicle: Klucel (hydroxypropylcellulose) (HPC) 98 % of control | dose: 20.0 mg/kg/injection, schedule: Q04DX003 (ip), vehicle: Klucel (hydroxypropylcellulose) (HPC) 98 % of control | [1] 100 % of control | dose: 40.0 mg/kg/injection, schedule: Q04DX003 (ip), vehicle: Klucel (hydroxypropylcellulose) (HPC) 90 % of control | [2] 98 % of control

O=C(O)c1ccc(CCCCl)cc1
inactive: dose: 12.5 mg/kg/injection, schedule: Q01DX001 (ip), vehicle: Klucel (hydroxypropylcellulose) (HPC) 98 % of control | dose: 25.0 mg/kg/injection, schedule: Q01DX001 (ip), vehicle: Klucel (hydroxypropylcellulose) (HPC) 103 % of control | dose: 50.0 mg/kg/injection, schedule: Q01DX001 (ip), vehicle: Klucel (hydroxypropylcellulose) (HPC) 94 % of control

OC1C(Br)C2C3CC4C(C13)C42 (stereo unspecified)
inactive: dose: 50.0 mg/kg/injection, schedule: Q04DX002 (ip), vehicle: Klucel (hydroxypropylcellulose) (HPC) 97 % of control | dose: 100.0 mg/kg/injection, schedule: Q04DX002 (ip), vehicle: Klucel (hydroxypropylcellulose) (HPC) 89 % of control | dose: 200.0 mg/kg/injection, schedule: Q04DX002 (ip), vehicle: Klucel (hydroxypropylcellulose) (HPC) 93 % of control

CC(=O)Oc1c(C(C)(C)C)cc(C)cc1C(C)(C)C
inactive: [2] 100 % of control | [3] 100 % of control | [4] 103 % of control

CCCCCCCCCCCCCCC(=O)N/N=C/c1ccc([N+](=O)[O-])s1
inactive: [5] 91 % of control | [6] 88 % of control | dose: 400.0 mg/kg/injection, schedule: Q01DX009 (ip), vehicle: saline with Tween-80 100 % of control

O=C(O)C1CCC(CC2CCC2)CC1 (stereo unspecified)
inactive: dose: 100.0 mg/kg/injection, schedule: Q01DX001 (ip), vehicle: Klucel (hydroxypropylcellulose) (HPC) 95 % of control | [7] 98 % of control | dose: 200.0 mg/kg/injection, schedule: Q01DX001 (ip), vehicle: Klucel (hydroxypropylcellulose) (HPC) 100 % of control | [8] 98 % of control | dose: 400.0 mg/kg/injection, schedule: Q01DX001 (ip), vehicle: Klucel (hydroxypropylcellulose) (HPC) 92 % of control | [9] 95 % of control

COC(=O)/C(C#N)=N/O
inactive: [10] 102 % of control | [5] 97 % of control | dose: 100.0 mg/kg/injection, schedule: Q04DX003 (ip), vehicle: saline with Tween-80 100 % of control | [6] 94 % of control | dose: 200.0 mg/kg/injection, schedule: Q04DX003 (ip), vehicle: saline with Tween-80 94 % of control

COc1ccc(/C=N/NC(=O)C(O)c2ccccc2)cc1 (stereo unspecified)
inactive: [3] 92 % of control | [4] 99 % of control | [11] 86 % of control

O=[N+]([O-])CC1c2ccccc2Nc2ccccc21
inactive: [10] 93 % of control | [5] 107 % of control | [6] 100 % of control

C/C=C(\C)C(=O)O
inactive: dose: 222.0 mg/kg/injection, schedule: Q01DX Z (ip), vehicle: saline 90 % of control

CCOC(=O)CNC(=O)Oc1c(Cl)cccc1Cl
inactive: [1] 100 % of control | [2] 88 % of control | [3] 89 % of control

CC(=O)OCN1C(=O)N(COC(C)=O)C(c2ccccc2)(c2ccccc2)C1=O
inactive: [5] 102 % of control | [12] 102 % of control | [6] 87 % of control | [13] 102 % of control | [14] 106 % of control

CC12CCC3c4ccccc4CCC3(CO1)C2 (stereo unspecified)
inactive: [3] 105 % of control | [7] 95 % of control | [4] 105 % of control | [8] 106 % of control | [11] 104 % of control | [9] 95 % of control

N#CC(C#N)=C1C(=O)c2ccccc2-c2ccccc21
inactive: [15] 107 % of control | dose: 200.0 mg/kg/injection, schedule: Q01DX001 (ip), vehicle: saline 109 % of control | dose: 400.0 mg/kg/injection, schedule: Q01DX001 (ip), vehicle: saline 105 % of control

O=c1[nH]c2ccsc2c(=O)n1O
inactive: [16] 102 % of control | [17] 97 % of control

O=C1OC(c2ccccc2)=NC1c1ccccc1 (stereo unspecified)
inactive: [18] 95 % of control | dose: 100.0 mg/kg/injection, schedule: Q04DX003 (ip), vehicle: carboxymethylcellulose (CMC) 101 % of control | [19] 97 % of control | dose: 200.0 mg/kg/injection, schedule: Q04DX003 (ip), vehicle: carboxymethylcellulose (CMC) 95 % of control | [20] 97 % of control | dose: 400.0 mg/kg/injection, schedule: Q04DX003 (ip), vehicle: carboxymethylcellulose (CMC) 97 % of control

CCC1(c2ccccc2)C(=O)NC(=S)N(C)C1=O (stereo unspecified)
inactive: dose: 75.0 mg/kg/injection, schedule: Q01DX001 (ip), vehicle: other 95 % of control | dose: 150.0 mg/kg/injection, schedule: Q01DX001 (ip), vehicle: other 96 % of control

C=CCc1cn(C2CC(O)C(CO)O2)c(=O)[nH]c1=O (stereo unspecified)
inactive: dose: 50.0 mg/kg/injection, schedule: Q01DX001 (ip), vehicle: saline 101 % of control | dose: 50.0 mg/kg/injection, schedule: Q04DX002 (ip), vehicle: saline 91 % of control | [15] 100 % of control and 101 % of control and 106 % of control | [18] 98 % of control | dose: 100.0 mg/kg/injection, schedule: Q04DX002 (ip), vehicle: saline 110 % of control | [16] 106 % of control | dose: 115.0 mg/kg/injection, schedule: Q01DX009 (ip), vehicle: saline 104 % of control | dose: 175.0 mg/kg/injection, schedule: Q01DX009 (ip), vehicle: saline 102 % of control | dose: 178.0 mg/kg/injection, schedule: Q01DX015 (ip), vehicle: saline 110 % of control | [19] 109 % of control and 112 % of control | dose: 200.0 mg/kg/injection, schedule: Q04DX002 (ip), vehicle: saline 100 % of control | [17] 95 % of control | dose: 264.0 mg/kg/injection, schedule: Q01DX009 (ip), vehicle: saline 110 % of control | dose: 267.0 mg/kg/injection, schedule: Q01DX015 (ip), vehicle: saline 107 % of control | [20] 115 % of control | dose: 400.0 mg/kg/injection, schedule: Q01DX015 (ip), vehicle: saline 119 % of control | dose: 400.0 mg/kg/injection, schedule: Q04DX003 (ip), vehicle: saline 111 % of control | dose: 600.0 mg/kg/injection, schedule: Q01DX015 (ip), vehicle: saline 121 % of control | dose: 800.0 mg/kg/injection, schedule: Q01DX001 (ip), vehicle: saline 105 % of control | dose: 1600.0 mg/kg/injection, schedule: Q01DX001 (ip), vehicle: saline 110 % of control

CCCC[n+]1ccc(C#N)cc1
inactive: dose: 75.0 mg/kg/injection, schedule: Q01DX001 (ip), vehicle: saline 103 % of control | dose: 150.0 mg/kg/injection, schedule: Q01DX001 (ip), vehicle: saline 95 % of control

O=[N+]([O-])c1ccc(OC(=S)N2CCOCC2)cc1
inactive: [12] 104 % of control | [13] 104 % of control | [14] 101 % of control

CCCCn1cncc1C
inactive: dose: 1.56 mg/kg/injection, schedule: Q01DX009 (ip), vehicle: saline 88 % of control | dose: 3.13 mg/kg/injection, schedule: Q01DX009 (ip), vehicle: saline 98 % of control | dose: 6.25 mg/kg/injection, schedule: Q01DX009 (ip), vehicle: saline 98 % of control and 104 % of control
